One data set has as its target T1, HIV-1 RT (Human immunodeficiency virus type 1 group M subtype B, UniProt P04585).
T1 construct: HSV-1 DNA Polymerase and HIV-1 Reverse Transcriptase Assay
Put plainly: HIV-1 reverse transcriptase assay. Format: biochemical. As to the method: (§1) The reaction mixture (40 μl) for the HSV-1 DNA polymerase and HIV-1 RT assays contained 4 μl Premix (200 mM Tris.HCl, pH 7.5; 2 mM DTT; 30 mM MgCl2), 4 μl BSA (5 mg/ml), 1.6 μl activated calf thymus DNA (1.25 mg/ml), 0.8 μl dCTP (5 mM), 0.8 μl dTTP (5 mM), 0.8 μl dGTP (5 mM), 2 μl radiolabeled [^3H]dATP (1 mCi/ml) (3.3 μM), 18 μl H2O and 4 μl tenofovir-DP at different concentrations (i.e. 200, 20, 2, 0.2 μM). The reaction was started by the addition of 4 μl recombinant HSV-1 DNA polymerase (kindly provided by M. W. Wathen (Pfizer, Kalamazoo, Mich.)) or recombinant HIV-1 RT (in 20 mM Tris.HCl, pH 8.0; 1 mM DTT; 0.1 mM EDTA; 0.2 M NaCl; 40% glycerol), and the reaction mixture was incubated for 60 min (HSV-1 DNA polymerase) or 30 min (HIV-1 RT) at 37° C. Then, 1 ml ice-cold 5% TCA in 0.02 M Na4P2O7.10H2O was added to terminate the polymerisation reaction, after which the acid-insoluble precipitate (radiolabeled DNA) was captured onto Whatman glass fiber filters type GF/C (GE Healthcare UK Limited, Buckinghamshire, UK) and further washed with 5% TCA and ethanol to remove free radiolabeled dATP. Radioactivity was determined in a Perkin Elmer Tri-Carb 2810 TR liquid scintillation counter.

The target of a further data set is T2, HSV-1 DNA polymerase (Human herpesvirus 1, UniProt P04293).
T2 construct: gift of M. W. Wathen (Pfizer, Kalamazoo, Mich.)
Put plainly: HSV-1 DNA polymerase assay. Format: biochemical. Conditions: activated calf thymus DNA primer/template; [2,8-3H]dATP competing substrate. As for the experimental part: as §1

Another data set has as its system HSV-2. Put plainly: Herpes virus infection of primary monocyte/macrophage (M/M) cell cultures. Format: cell-based. As to the method: Human peripheral blood mononuclear cells (PBMCs) were obtained from the blood of healthy seronegative donors by Ficoll-Hypaque density gradient centrifugation. […] Monocyte/macrophage (M/M) cells were separated by adherence onto plastic. […] African green monkey fibroblastoid kidney (Vero) cells highly sensitive to the cytopathic effect of HSV-2 were grown in RPMI medium supplemented with 10% heat inactivated FCS and were used in infectious virus titration assays.
Macrophage cultures were then infected with HSV-2 (100 CCID50) in the presence of the test compounds. After 2 hrs virus adsorption, the cultures were extensively washed to remove any residual virus particles. Fresh culture medium and compounds, at the indicated concentrations, were then added to the cultures. […] Appropriate positive (infected but not treated M/M) and mock-infected negative (uninfected and untreated M/M) controls were run for each experiment as well. All assays were performed in triplicate. […] Therefore, the potential inhibitory effect of the compounds on the replication of HSV-2 was evaluated 6 days after infection. The amount of infectious virus in the supernatants was determined by a classical limited dilution assay on Vero cell cultures. The titers of produced virus were calculated according to the Reed and Muench method and expressed as 50% tissue culture infective dose per ml (TCID50/ml).
The inhibition capacity was expressed in % and calculated considering as value 100 being the virus production in virus-infected untreated cultures.

The test system of the next data set is HSV-1 and HSV-2. Nature of the data set: HSV cytopathic effect (CPE) reduction assay, laboratory strains, HEL cell monolayers and PHKs. Format: cell-based, herpes simplex virus. Conditions: laboratory HSV strains; HEL cell monolayers and PHKs; read-out: EC50, inhibition of virus-induced cytopathicity. For orientation: Protection from cytopathic effect is a common read-out in antiviral testing.

A further data set deals with HSV-1 (Kos strain). Put plainly: In vivo antiviral activity in HSV-1-infected NMRI athymic nude mice. As for the experimental part: (§2) Adult NMRI athymic nude mice (weighing ˜20 g) were scarified on the lumbosacral area over a surface of about 1 cm^2. Mice were inoculated with 5×10^3 PFU of HSV-1 (Kos strain) or 5×10^2 of HSV-2 (G strain) in 50 μL per mouse. […] In each experiment, a group of animals treated with a placebo formulation that was the same as the test formulation without drug was included as a negative control. […] The day of virus inoculation was always considered as day 0. All animal procedures were approved by the K.U. Leuven Animal Care Committee. Development of lesions and mortality were recorded over a one month period. Animals were euthanized when more than 30% loss in body weight or development of paralysis occurred. Survival rates were estimated according to the Kaplan-Meir method and were compared using the log-rank test (Mantel-Cox) test (GraphPad Prism).

For the next data set, the system named is HSV-1 (KOS). Put plainly: Organotypic epithelial raft cultures infected with HSV-1. Format: cell-based. Conditions: reference HSV-1 laboratory strain. As for the experimental part: (§3) For the preparation of epidermal equivalents, a collagen matrix solution was made with collagen mixed on ice with 10-fold concentrated HAM's F12 media, 10-fold reconstitution buffer and Swiss 3T3 J2 fibroblasts. One milliliter of the collagen matrix solution was poured into the wells of 24-well microtiter plates. After gel equilibration with 1 ml of growth medium overnight at 37° C., 2.5×10^5 PHK cells were seeded on the top of the gels and maintained submerged for 24-48 hours. The collagen rafts were raised and placed onto stainless-steel grids at the interface between air and liquid culture medium. The growth medium was a mixture of ⅓ HAM F12 and ⅔ Dulbecco's modified Eagle's medium, with the same supplements as used for the Keratinocyte-SFM. Epithelial cells were allowed to stratify, the medium being replaced every 2-3 days. For the evaluation of the antiviral effects of the compounds in the raft system, two series of rafts were run in parallel, one for histological examination and the other one for quantification of viral production by a plaque reduction assay. Rafts were infected with 5,000 PFU of HSV-1 (KOS) or […] strains after 10 days post-lifting and then the medium was replaced by medium containing different dilutions of the compounds. The growth medium containing the different concentrations of the compounds was changed two days later and 3 days later (after 15 days of differentiation), one series of rafts was fixed in 10% buffered formalin, embedded in paraffin and stained with hematoxylin and eosin for histological evaluation. Another series of rafts was used to quantify virus production. For that purpose, each raft was frozen in 3 ml phosphate buffer saline (PBS) and thawed to release the virus from the infected epithelium. Supernatants were clarified by centrifugation at 1,800 rpm and titrated by a plaque assay in HEL cell cultures. Virus production in each raft was then calculated. Two rafts were used for each drug concentration to determine the effects of the compounds on virus yield.

In another data set the test system is HSV-2 (G strain). Nature of the data set: In vivo antiviral activity in HSV-2-infected NMRI athymic nude mice. Conditions: for protection against viral-induced morbidity and mortality: 1% in DMSO (FIG. 5B). As to the method: as §2
In a further data set the test system is HSV-2 (G). Put plainly: Organotypic epithelial raft cultures infected with HSV-2. It is filed as cell-based. The following applies: for activity against HSV replication in rafts compared with tenofovir: HSV-1 and HSV-2, FIGS. 3A and 3B; for concentration resulting in complete protection of the epithelial tissue: HSV-2, data not shown. As to the method:
as §3

The test system of data set [1] is organotypic raft cultures of keratinocytes. Put plainly: Toxic effects in organotypic epithelial raft cultures. The following applies: highest concentration, 50 μg/ml. It is filed as cell-based. As to the method:
as §3

The test system of data set [2] is HSV-1 and HSV-2 clinical isolates. Nature of the data set: organism not typed. It is filed as cell-based, herpes simplex virus. Conditions: for antiherpetic activity against thymidine kinase-deficient strains compared with wild-type: clinical isolates, HEL.
A further data set has as its system HSV-2 strain G (HSV-2G). Nature of the data set: Human ex vivo tonsillar tissue, HSV DNA release by real-time PCR. Format: cell-based. The following applies: 33 μg/ml; tissues from two donors; data not shown. As for the experimental part:
For each experimental condition 16 tissue blocks were immersed in 500 μl of a HSV-2 (strain G) suspension for 2 hours at 37° C., washed three times with PBS and then placed on the gelfoam rafts. Tenofovir was added during the infection and replenished at each culture medium change. Herpes simplex viral replication was evaluated by the release of viral DNA into the culture medium as measured by quantitative real-time PCR (17). HIV-1 replication was evaluated by the release of p24 capsid antigen using a bead-based assay (18).

Values after ≈ are worked out from the molar mass of the structure shown.

By IC50 is commonly meant the midpoint of a concentration-inhibition curve. A low value points to greater potency. For orientation: EC50 means the concentration needed to bring the measured effect to its halfway point.

T2 sequence (P04293 whole entry): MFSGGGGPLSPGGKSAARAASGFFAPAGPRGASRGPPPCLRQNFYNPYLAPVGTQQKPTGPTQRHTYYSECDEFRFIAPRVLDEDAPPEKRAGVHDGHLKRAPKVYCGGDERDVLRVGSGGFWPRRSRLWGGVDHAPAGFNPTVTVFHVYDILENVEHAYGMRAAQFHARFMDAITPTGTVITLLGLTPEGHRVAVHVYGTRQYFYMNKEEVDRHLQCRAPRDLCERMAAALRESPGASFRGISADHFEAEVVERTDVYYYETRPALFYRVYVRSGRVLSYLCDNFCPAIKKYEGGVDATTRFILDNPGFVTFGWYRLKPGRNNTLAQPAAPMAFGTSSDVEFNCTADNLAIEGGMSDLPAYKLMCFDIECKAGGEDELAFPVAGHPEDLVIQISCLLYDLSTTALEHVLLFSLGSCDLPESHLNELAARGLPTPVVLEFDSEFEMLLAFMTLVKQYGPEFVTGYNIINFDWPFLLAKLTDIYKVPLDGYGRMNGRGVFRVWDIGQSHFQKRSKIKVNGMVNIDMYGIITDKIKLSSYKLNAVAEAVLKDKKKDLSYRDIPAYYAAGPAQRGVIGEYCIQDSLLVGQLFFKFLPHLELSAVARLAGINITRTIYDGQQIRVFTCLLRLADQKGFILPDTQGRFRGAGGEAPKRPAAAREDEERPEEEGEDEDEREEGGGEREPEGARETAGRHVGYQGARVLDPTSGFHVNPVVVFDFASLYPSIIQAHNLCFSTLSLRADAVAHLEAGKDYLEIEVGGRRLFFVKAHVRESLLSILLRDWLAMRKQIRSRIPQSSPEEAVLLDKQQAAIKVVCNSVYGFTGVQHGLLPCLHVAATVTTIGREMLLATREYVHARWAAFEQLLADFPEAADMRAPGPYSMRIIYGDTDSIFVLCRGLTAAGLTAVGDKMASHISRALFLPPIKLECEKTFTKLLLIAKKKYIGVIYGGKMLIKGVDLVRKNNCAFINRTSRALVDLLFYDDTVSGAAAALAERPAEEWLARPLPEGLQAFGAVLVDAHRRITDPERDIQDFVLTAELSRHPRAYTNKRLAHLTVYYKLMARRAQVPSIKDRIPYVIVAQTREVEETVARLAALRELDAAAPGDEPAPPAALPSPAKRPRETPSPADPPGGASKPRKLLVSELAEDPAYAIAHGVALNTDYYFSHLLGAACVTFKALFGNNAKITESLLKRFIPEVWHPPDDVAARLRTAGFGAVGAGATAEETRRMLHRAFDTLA

For `C[C@H](Cn1cnc2c(N)ncnc21)OCP(=O)(O)OP(=O)(O)OP(=O)(O)O` [Tenofovir-DP, (R)-(1-(6-amino-9H-purin-9-yl)propan-2-yloxy)methylphosphonic diphosphoric anhydride], the IC50 came to 4.3 µM against HIV-1 RT and 1.3 µM at HSV-1 DNA polymerase.
For `Nc1nc2c(ncn2COCCO)c(=O)[nH]1` [acyclovir, 9-(2-hydroxyethoxymethyl)guanine], the “virus released in the supernatants and visible cytopathicity” value in the data set with HSV-2 (concentrations equal to, or higher than 0.008 μg/ml) was “full suppression of virus released in the supernatants and no visible cytopathicity”.
As for `Nc1ncnc2c1ncn2CCOCP(=O)(O)O` [adefovir, 9-[2-(phosphonylmethoxyethyl)adenine]], the EC50 with HSV-1 and HSV-2 is 3.6 to 13 µg/mL (≈ 13.2 to 47.6 µM). In the data set with HSV-1 (Kos strain) (1% in DMSO), the survival stood at 80%. In addition, the “skin lesions in mice that died” value with HSV-1 (Kos strain) (1% in DMSO formulation) is given as “died without developing skin lesions”. In the data set with HSV-1 (Kos strain) (1% in gel, data not shown), this molecule registered a survival of 100%. For the same molecule, in the data set on HSV-1 (KOS), the “concentration giving complete protection from virus-induced cytopathic effect” value turned out to be 2 µg/mL. Also, the “protection against viral-induced morbidity and mortality” value with HSV-2 (G strain) is recorded as 80%. Also, in the data set with HSV-2 (G strain) (formulated in the gel at 1%), the “appearance of lesions and subsequent death” value is “significant delay in the appearance of lesions and subsequent death”. In the data set with HSV-2 (G), the “activity against HSV replication in rafts compared with tenofovir” value is “more active against HSV replication than tenofovir” and the “concentration resulting in complete protection of the epithelial tissue” value is ≥ 2 µg/mL. Besides, the “toxic effects (increase in number of dead cells or alteration of differentiation)” value in data set [1] is on record as “No toxic effects”. Also, in the data set on HSV-2 (0.4 μg/ml), the “HSV titer in supernatants” value is reported as 5.4×10^3 TCID50/ml and the “visible CPE” value worked out at 45%. Moreover, in the data set with HSV-2 (1 μg/ml), the “HSV titer in supernatants” value is 8.5×10^2 TCID50/ml and the “visible CPE” value was 5%. Besides, in the data set with HSV-2 (drug concentrations between 500 and 5 μg/ml), the “viral particles in the supernatants and visible CPE” value is “neither viral particles in the supernatants nor visible CPE were found”.
On to `O=c1[nH]c(=O)n([C@H]2C[C@H](O)[C@@H](CO)O2)cc1/C=C/Br` [brivudin, RE)-5-(2-bromovinyl)-1(-D-2′-deoxyribofuranos-1-yl-uracil], for which the “antiherpetic activity against thymidine kinase-deficient strains compared with wild-type” value (“antiherpetic activity … compared with wild-type” for short) in data set [2] is listed as “lost their antiherpetic activity”.
As to `Nc1ccn(C[C@@H](CO)OCP(=O)(O)O)c(=O)n1` [cidofovir, (S)-1-(3-hydroxy-2-phosphonylmethoxypropyl)cytosine], the EC50 with HSV-1 and HSV-2 lay in the range of 0.63 to 4.4 µg/mL (≈ 2.26 to 15.8 µM); in [2] (Fibroblast, read-out: mean EC50 values (range over isolate groups)), 0.35 to 0.67 µg/mL (≈ 1.25 to 2.4 µM). For the same molecule, in the data set on HSV-1 (Kos strain) (either the DMSO or the gel formulation), the “protection against virus-induced morbidity and mortality” value is on record as “completely protected”. Besides, the “concentration giving complete protection from virus-induced cytopathic effect” value with HSV-1 (KOS) was ≥ 0.5 µg/mL. For the same molecule, the “protection against viral-induced morbidity and mortality” value in the data set with HSV-2 (G strain) is reported as 100%. Moreover, the “protection against HSV-2-induced morbidity and mortality” value in the data set with HSV-2 (G strain) (formulated in gel) worked out at 80%. Moreover, in the data set on HSV-2 (G), the “activity against HSV replication in rafts compared with tenofovir” value was “more active against HSV replication than tenofovir”. In the data set on HSV-2 (G), the “concentration resulting in complete protection of the epithelial tissue” value turned out to be 0.2 µg/mL. Besides, the “toxic effects (increase in number of dead cells or alteration of differentiation)” value in data set [1] is “No toxic effects”.
Take `Nc1nc2c(ncn2COC(CO)CO)c(=O)[nH]1` [ganciclovir, 9-(1,3-dihydroxy-2-propoxymethyl)guanine]: the “antiherpetic activity … compared with wild-type” value in data set [2] was “lost their antiherpetic activity”.
Consider `Nc1ccn([C@@H]2CS[C@H](CO)O2)c(=O)n1` [lamivudine], for which the “effect on HSV-2G replication compared to untreated donor-matched tissues” value in the data set with HSV-2 strain G (HSV-2G) is reported as “no effect”.
As to `Nc1nc2c(ncn2CCC(CO)CO)c(=O)[nH]1` [penciclovir, 9-(4-hydroxy-3-hydroxymethylbut-1-yl)guanine], the “antiherpetic activity … compared with wild-type” value in data set [2] is listed as “lost their antiherpetic activity”.

These data come from patent publication US20130216590A1, “TOPICAL ANTIVIRAL FORMULATIONS FOR PREVENTION OF TRANSMISSION OF HSV-2” (priority 2010, published 2013).
